The record followed here is ChEMBL document CHEMBL1137009, “Inhibition of sphingosine-1-phosphate lyase for the treatment of autoimmune disorders” (J Med Chem, 2009).

Series [1] is described as follows: Protein binding in 129/SvEvBrd x C57BL/6 hybrid mouse plasma at 10 mg/kg. The format is ADME, organism-based. Conditions: read-out: PPB. Also noted: dose 10 mg/kg.
Series [2] in a line: Bioavailability in 129/SvEvBrd x C57BL/6 hybrid mouse at 10 mg/kg. The format is ADME, organism-based. To be noted: in vivo.
The subject of series [3] is Mus musculus. As to the kind of experiment: Induction of lymphopenia in 129/SvEvBrd x C57BL/6 hybrid mouse whole blood assessed as reduction in lymphocyte level at 100 mg/kg, po after 4 hrs by complete blood count analysis. Also noted: dose 100 mg/kg. The format is functional, organism-based.
Series [4] has as its system Mus musculus. As to the kind of experiment: Induction of lymphopenia in 129/SvEvBrd x C57BL/6 hybrid mouse whole blood assessed as reduction in lymphocyte level at 100 mg/kg, po after 18 hrs by complete blood count analysis. Also noted: dose 100 mg/kg. The format is functional, organism-based.
The nature of series [5]: Cmax in 129/SvEvBrd x C57BL/6 hybrid mouse at 10 mg/kg. Also noted: dose 10 mg/kg. Conditions: in vivo. Format: ADME, organism-based.
Series [6] concerns the target T1, Sphingosine-1-phosphate lyase 1 (Mus musculus, UniProt Q8R0X7).
T1 sequence (Q8R0X7 whole entry): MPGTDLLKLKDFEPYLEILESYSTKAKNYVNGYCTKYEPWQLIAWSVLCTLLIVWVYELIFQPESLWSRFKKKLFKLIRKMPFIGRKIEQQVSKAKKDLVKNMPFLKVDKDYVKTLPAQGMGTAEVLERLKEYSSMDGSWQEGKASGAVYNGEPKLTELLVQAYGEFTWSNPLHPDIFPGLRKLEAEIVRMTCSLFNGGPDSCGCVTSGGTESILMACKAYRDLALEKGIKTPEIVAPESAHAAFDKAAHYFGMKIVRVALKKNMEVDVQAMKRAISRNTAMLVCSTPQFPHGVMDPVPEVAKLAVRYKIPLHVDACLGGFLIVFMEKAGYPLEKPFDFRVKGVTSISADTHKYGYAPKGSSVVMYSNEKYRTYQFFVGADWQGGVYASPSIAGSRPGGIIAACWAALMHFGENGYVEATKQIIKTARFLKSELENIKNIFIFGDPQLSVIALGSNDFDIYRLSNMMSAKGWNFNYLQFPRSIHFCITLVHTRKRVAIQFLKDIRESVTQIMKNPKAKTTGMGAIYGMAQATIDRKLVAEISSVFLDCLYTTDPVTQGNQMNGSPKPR
As to the kind of experiment: Inhibition of sphingosine-1-phosphate lyase in mouse spleen by scintillation counting. The format is tissue-based.

Series [7] can be described thus: AUC in 129/SvEvBrd x C57BL/6 hybrid mouse at 10 mg/kg. To be noted: plasma. Format: ADME, organism-based. Also noted: dose 10 mg/kg.
Series [8] has as its system Mus musculus. As to the kind of experiment: Induction of lymphopenia in 129/SvEvBrd x C57BL/6 hybrid mouse assessed as change in circulating lymphocyte level at 30 mg/kg, po administered as single dose after 18 hrs by complete blood count analysis relative to control. The format is functional.
The nature of series [9]: Permeability across human Caco-2 cell membrane at 20 uM. Format: ADME, cell-based. To be noted: read-out: permeability.
The nature of series [10]: Half life in 129/SvEvBrd x C57BL/6 hybrid mouse. Format: ADME, organism-based. Conditions: in vivo.
For series [11], the system named is Mus musculus. Description: Toxicity in 129/SvEvBrd x C57BL/6 hybrid mouse at 100 mg/kg, po. Format: organism-based. Also noted: dose 100 mg/kg, route oral. To be noted: in vivo.
Series [12] in a line: AUC (0 to infinity) in 129/SvEvBrd x C57BL/6 hybrid mouse at 10 mg/kg, po. Format: ADME, organism-based, Plasma. Also noted: time infinity, dose 10 mg/kg, route oral. To be noted: 129/SvEvBrd x C57BL/6 hybrid, plasma.
A short description of series [13]: Volume of distribution in 129/SvEvBrd x C57BL/6 hybrid mouse. The format is ADME, organism-based. To be noted: in vivo.
The test system of series [14] is Mus musculus. Description: Increase in sphingosine-1-phosphate level in mouse spleen at 100 mg/kg, po after 18 hrs by radioreceptor binding assay relative to control. Format: functional.
Series [15] is described as follows: Cmax in 129/SvEvBrd x C57BL/6 hybrid mouse. Conditions: in vivo. Format: ADME, organism-based.
Series [16] in a line: Clearance in 129/SvEvBrd x C57BL/6 hybrid mouse at 1 mg/kg, iv. The format is ADME, organism-based. Also noted: dose 1 mg/kg, route intravenous. Conditions: in vivo.
Series [17] in a line: Oral bioavailability in 129/SvEvBrd x C57BL/6 hybrid mouse at 1 mg/kg, iv and 10 mg/kg, po. Conditions: 129/SvEvBrd x C57BL/6 hybrid, in vivo. The format is ADME, organism-based.
In series [18] the test system is Mus musculus. Description: Reduction in sphingosine-1-phosphate lyase activity in mouse spleen at 100 mg/kg, po after 18 hrs by radioreceptor binding assay. Format: functional, organism-based. Also noted: dose 100 mg/kg.
The subject of series [19] is Mus musculus. Description: Induction of lymphopenia in 129/SvEvBrd x C57BL/6 hybrid mouse assessed as change in circulating lymphocyte level at 100 mg/kg, po administered as single dose after 18 hrs by complete blood count analysis relative to control. Format: functional.
Series [20] in a line: Tmax in 129/SvEvBrd x C57BL/6 hybrid mouse. Format: ADME, organism-based. Conditions: in vivo.

Activity calls are given as the source filed them. The calls are words filed in the database; no cut-off is given here.

As for `Nc1nc(N2CCCCC2)nc2c1c(=O)c(C(=O)NCc1ccc(-n3ccnc3)cc1)cn2CC1CCCO1` (centres undefined), in [1], the fraction unbound was under 0.01. Besides, the bioavailability (commonly dose-corrected exposure relative to a reference, in per cent) in [2] was determined as 100%. Also, the Activity entry in the series with Mus musculus [3] and in the series on Mus musculus [4] was “Non-toxic” each time. The Cmax (as a rule, the maximum level reached in the sampled fluid or tissue) in [5] was 451 µM. The IC50 (commonly the midpoint of a concentration-inhibition curve) in series [6] was 2100 nM. Also, in [7], the exposure (AUC) (in general, the area under the concentration-time curve, a measure of exposure) was found to be 1870 µM·h.
`CC(F)(F)c1nc([C@@H](O)[C@H](O)[C@H](O)CO)c[nH]1`: the Activity in the series on Mus musculus [8] is listed as -58%; with Mus musculus [11], “Toxic”. Moreover, in series [9], the Papp at 20 µM came to 11.1 ×10⁻⁶ cm/s. Also, the half-life (usually how long it takes for the measured level to halve) in series [10] is 1 h. Further, the AUC(0-inf) (commonly total exposure, with the tail of the curve extrapolated) in series [12] was 4.7 µM·h.
With `CC(=O)c1nc([C@@H](O)[C@H](O)[C@H](O)CO)c[nH]1`, the figures for the Activity in the series with Mus musculus [8] and with Mus musculus [19] were -25% and -41%, respectively. Besides, the distribution volume (Vd) (usually the apparent volume that relates the amount in the body to the concentration in plasma or blood) in series [13] came to 0.067 L/kg. Further, in the series with Mus musculus [14], the “fold change (FC)” value was determined as 22. In series [15], this compound yielded a maximum concentration (Cmax) of 24.9 µM. Besides, in series [16], the clearance (usually a measure of how efficiently the substance is removed, as volume per time) came out at 2.9 mL/min/kg. In addition, in series [17], the bioavailability was determined as 14%. Further, the outcome with Mus musculus [18] was Active. In addition, the Papp at 20 µM in series [9] was found to be 11 ×10⁻⁶ cm/s. Besides, the half-life in series [10] was 4.5 h. In series [12], this compound returned an AUC(0-inf) of 35.8 µM·h. In addition, the Tmax (commonly the time from dosing to the highest level) in [20] was determined as 0.5 h.
